Experimental data taken from patent publication US8735398B2 (Bristol-Myers Squibb Company, priority 2009, dated 2014).
pEC50: −log10 of the molar value.

These molecules were tested on HCV 1b genotype (assay: HCV replicon assay (HCV-neo replicon cells, wild-type)). Conditions: HCV 1b genotype replicon; class symbol; read-out: EC50 Range against HCV 1b.
Type: cell-based, Hepatitis C virus
Procedure, shortened: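 HCV-neo replicon cells (wild-type) and replicon cells carrying NS5A resistance substitutions were treated with compounds; assay per O'Boyle et al. 2005, with luciferase-reporter read-out variants also used.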

Compound	pEC50
O=C(Nc1ccc(-c2cnc(-c3ccc(NC(=O)[C@@H]4CCCN4C(=O)[C@@H]4C[C@@H]5C[C@@H]5N4C(=O)c4ccc(Cl)cc4Cl)cc3)o2)cc1)[C@@H]1CCCN1C(=O)[C@@H]1C[C@@H]2C[C@@H]2N1C(=O)c1ccc(Cl)cc1Cl [Example D-26, (S,S,S,2S,2′S)-N,N′-(4,4′-(oxazole-2,5-diyl)bis(4,1-phenylene))bis(1-((1S,3S,5S)-2-(2,4-dichlorobenzoyl)-2-azabicyclo[3.1.0]hexane-3-carbonyl)pyrrolidine-2-carboxamide)]	5.00 to 6.00

Same assay, conditions: HCV 1b genotype replicon; class symbols; read-out: EC50 Range against HCV 1b

Compound	pEC50
CN(C)[C@H](C(=O)N1CCC[C@H]1C(=O)Nc1ccc(-c2cnc(-c3ccc(NC(=O)[C@@H]4CCCN4C(=O)[C@H]([C@H](O)c4ccsc4)N(C)C)cc3)o2)cc1)[C@H](O)c1ccsc1 [JR-16, (S,R,2S)-N,N′-(4,4′-(oxazole-2,5-diyl)bis(4,1-phenylene))bis(1-((2S,3R)-2-(dimethylamino)-3-hydroxy-3-(thiophen-3-yl)propanoyl)pyrrolidine-2-carboxamide)]	5.00 to 6.00

Same assay, conditions: HCV 1b genotype replicon; read-out: EC50 1b

Compound	pEC50
O=C(Nc1ccc(-c2cnc(-c3ccc(NC(=O)[C@@H]4CCCN4C(=O)[C@@H]4C[C@@H]5C[C@@H]5N4C(=O)c4ccc(Cl)cc4Cl)cc3)o2)cc1)[C@@H]1CCCN1C(=O)[C@@H]1C[C@@H]2C[C@@H]2N1C(=O)c1ccc(Cl)cc1Cl [Example D-26, (S,S,S,2S,2′S)-N,N′-(4,4′-(oxazole-2,5-diyl)bis(4,1-phenylene))bis(1-((1S,3S,5S)-2-(2,4-dichlorobenzoyl)-2-azabicyclo[3.1.0]hexane-3-carbonyl)pyrrolidine-2-carboxamide)]	5.48

Same assay, conditions: Hepatitis C virus, HCV 1b genotype replicon; class symbol; read-out: EC50 Range against HCV 1b

Compound	pEC50
C[C@H](NC(=O)OCc1ccccc1)C(=O)Nc1ccc(-c2n[nH]nc2-c2ccc(NC(=O)[C@H](C)NC(=O)OCc3ccccc3)cc2)cc1 [OL-18, [(1S)-1-methyl-2-oxo-2-[[4-[4-[4-[[(2S)-1-oxo-2-[[(phenylmethoxy)carbonyl]amino]propyl]amino]phenyl]-1H-1,2,3-triazol-5-yl]phenyl]amino]ethyl]-carbamic acid, phenylmethyl ester]	7.00 to 8.34
O=C(Nc1ccc(-c2nnc(-c3ccc(NC(=O)[C@@H]4CCCN4C(=O)[C@H]4CCCO4)cc3)o2)cc1)[C@@H]1CCCN1C(=O)[C@H]1CCCO1 [RK-15, (2S,2′S)-N,N′-(1,3,4-oxadiazole-2,5-diyldi-4,1-phenylene)bis(1-((2R)-tetrahydro-2-furanylcarbonyl)-2-pyrrolidinecarboxamide)]	5.00 to 6.00
O=C(Nc1ccc(-c2cnc(-c3ccc(NC(=O)[C@@H]4CCCN4C(=O)c4onc5ccccc45)cc3)o2)cc1)[C@@H]1CCCN1C(=O)c1onc2ccccc12 [JG-30, (2S,2′S)-N,N′-(1,3-oxazole-2,5-diyldi-4,1-phenylene)bis(1-(2,1-benzisoxazol-3-ylcarbonyl)-2-pyrrolidinecarboxamide)]	7.00 to 8.34
CC(=O)N1CCC[C@H]1C(=O)Nc1ccc(-c2cc(-c3ccc(NC(=O)[C@@H]4CCCN4C(C)=O)cc3)n(C)n2)cc1 [FY-2, (2S,2′S)-N,N′-((1-methyl-1H-pyrazole-3,5-diyl)di-4,1-phenylene)bis(1-acetyl-2-pyrrolidinecarboxamide)]	5.00 to 6.00
O=C(Nc1cccc(-c2ccc(-c3cccc(NC(=O)[C@@H]4CCCN4C(=O)Cc4ccccc4)c3)s2)c1)[C@@H]1CCCN1C(=O)Cc1ccccc1 [OL-25, (2S,2′S)-N,N′-(2,5-thienediyldi-3,1-phenylene)bis[1-(phenylacetyl)-2-pyrrolidinecarboxamide]]	7.00 to 8.34
CC(=O)N1CCC[C@H]1C(=O)Nc1ccc(-c2nc(-c3ccc(NC(=O)[C@@H]4C=CCN4C(=O)Cc4cccs4)cc3)cs2)cc1 [Example D-48, (2S)-N-[4-[2-[4-[[[(2S)-1-acetyl-2-pyrrolidinyl]carbonyl]amino]phenyl]-4-thiazolyl]phenyl]-2,5-dihydro-1-(2-thienylacetyl)-1H-pyrrole-2-carboxamide]	6.00 to 7.00
C[C@H](NC(=O)[C@H](O)c1ccccc1)C(=O)Nc1ccc(-c2cc(-c3ccc(NC(=O)[C@@H](C)NC(=O)[C@H](O)c4ccccc4)cc3)[nH]n2)cc1 [OL-44, (S)-2-((R)-2-hydroxy-2-phenylacetamido)-N-(4-(5-(4-((R)-2-((R)-2-hydroxy-2-phenylacetamido)propanamido)phenyl)-1H-pyrazol-3-yl)phenyl)propanamide]	> 8.34
CN(C)CC(Oc1ccc(Cl)cc1)C(=O)N1CCC[C@H]1C(=O)Nc1ccc(-c2cnc(-c3ccc(NC(=O)[C@@H]4CCCN4C(=O)C(CN(C)C)Oc4ccc(Cl)cc4)cc3)o2)cc1 (stereo partly drawn) [Example D-19, (2S,2′S)-N,N′-(1,3-oxazole-2,5-diyldi-4,1-phenylene)bis(1-(2-(4-chlorophenoxy)-3-(dimethylamino)propanoyl)-2-pyrrolidinecarboxamide)]	6.00 to 7.00
O=C(C(=O)N1CCC[C@H]1C(=O)Nc1ccc(-c2cnc(-c3ccc(NC(=O)[C@@H]4CCCN4C(=O)C(=O)c4ccccc4)cc3)o2)cc1)c1ccccc1 [JG-27, (2S,2′S)-N,N′-(1,3-oxazole-2,5-diyldi-4,1-phenylene)bis(1-(oxo(phenyl)acetyl)-2-pyrrolidinecarboxamide)]	7.00 to 8.34
C[C@](O)(C(=O)N1CCC[C@H]1C(=O)Nc1ccc(-c2nnc(-c3ccc(NC(=O)[C@@H]4CCCN4C(=O)[C@](C)(O)c4ccccc4)cc3)o2)cc1)c1ccccc1 [RK-28, (2S,2′S)-N,N′-(1,3,4-oxadiazole-2,5-diyldi-4,1-phenylene)bis(1-((2R)-2-hydroxy-2-phenylpropanoyl)-2-pyrrolidinecarboxamide)]	> 8.34
O=C(Nc1ccc(-c2ccc(-c3ccc(NC(=O)[C@@H]4CCCN4C(=O)c4nccc5ccccc45)cc3)o2)cc1)[C@@H]1CCCN1C(=O)c1nccc2ccccc12 [JG-62, (2S,2′S)-N,N′-(2,5-furandiyldi-4,1-phenylene)bis(1-(1-isoquinolinylcarbonyl)-2-pyrrolidinecarboxamide)]	6.00 to 7.00

Same assay, conditions: Hepatitis C virus, HCV 1b genotype replicon; class symbols; read-out: EC50 Range against HCV 1b

Compound	pEC50
Cc1cccc(CC(=O)N2C[C@H](O)C[C@H]2C(=O)Nc2ccc(-c3cnc(-c4ccc(NC(=O)[C@@H]5C[C@@H](O)CN5C(=O)Cc5cccc(C)c5)cc4)o3)cc2)c1 [XY-51, (2S,4R,2′S,4′R)-N,N′-(1,3-oxazole-2,5-diyldi-4,1-phenylene)bis(4-hydroxy-1-((3-methylphenyl)acetyl)-2-pyrrolidinecarboxamide)]	6.00 to 7.00
O=C(Nc1ccc(-c2cnc(-c3ccc(NC(=O)[C@@H]4C[C@@H](O)CN4C(=O)C4CCC4)cc3)o2)cc1)[C@@H]1C[C@@H](O)CN1C(=O)C1CCC1 [XY-46, (2S,4R,2′S,4′R)-N,N′-(1,3-oxazole-2,5-diyldi-4,1-phenylene)bis(1-(cyclobutylcarbonyl)-4-hydroxy-2-pyrrolidinecarboxamide)]	6.00 to 7.00
CC1(C(=O)N2CCC[C@H]2C(=O)Nc2ccc(-c3cnc(-c4ccc(NC(=O)[C@@H]5CCCN5C(=O)C5(C)CC5)cc4)o3)cc2)CC1 [XY-39, (2S,2′S)-N,N′-(1,3-oxazole-2,5-diyldi-4,1-phenylene)bis(1-((1-methylcyclopropyl)carbonyl)-2-pyrrolidinecarboxamide)]	6.00 to 7.00
CCn1c(=O)n(C(C)C(=O)N2CCC[C@H]2C(=O)Nc2ccc(-c3cnc(-c4ccc(NC(=O)[C@@H]5CCCN5C(=O)C(C)n5c(=O)n(CC)c6ccccc65)cc4)o3)cc2)c2ccccc21 (stereo partly drawn) [JR-10, (2S,2′S)-N,N′-(2,5-oxazolediyldi-4,1-phenylene)bis[1-[2-(3-ethyl-2,3-dihydro-2-oxo-1H-benzimidazol-1-yl)-1-oxopropyl]-2-pyrrolidinecarboxamide]]	5.00 to 6.00
O=C(Nc1ccc(-c2cnc(-c3ccc(NC(=O)[C@@H]4CCCN4C(=O)c4cccs4)cc3)o2)cc1)[C@@H]1CCCN1C(=O)c1cccs1 [XY-1, (2S,2′S)-N,N′-(1,3-oxazole-2,5-diyldi-4,1-phenylene)bis(1-(2-thienylcarbonyl)-2-pyrrolidinecarboxamide)]	6.00 to 7.00
O=C(Nc1ccc(-c2cnc(-c3ccc(NC(=O)[C@@H]4CCCN4C(=O)CN4C(=O)OC[C@H]4c4ccccc4)cc3)o2)cc1)[C@@H]1CCCN1C(=O)CN1C(=O)OC[C@H]1c1ccccc1 [JR-21, (2S,2′S)-N,N′-(2,5-oxazolediyldi-4,1-phenylene)bis[1-[[(4R)-2-oxo-4-phenyl-3-oxazolidinyl]acetyl]-2-pyrrolidinecarboxamide]]	5.00 to 6.00
CC(C)(C)O[C@@H]1C[C@@H](C(=O)Nc2ccc(-c3cnc(-c4ccc(NC(=O)[C@@H]5C[C@@H](OC(C)(C)C)CN5C(=O)C5CCC5)cc4)o3)cc2)N(C(=O)C2CCC2)C1 [XY-64, (2S,4R,2′S,4′R)-N,N′-(1,3-oxazole-2,5-diyldi-4,1-phenylene)bis(4-tert-butoxy-1-(cyclobutylcarbonyl)-2-pyrrolidinecarboxamide)]	5.00 to 6.00
CC(C)(C)O[C@@H]1C[C@@H](C(=O)Nc2ccc(-c3cnc(-c4ccc(NC(=O)[C@@H]5C[C@@H](OC(C)(C)C)CN5C(=O)C(C)(C)C)cc4)o3)cc2)N(C(=O)C(C)(C)C)C1 [XY-63, (2S,4R,2′S,4′R)-N,N′-(1,3-oxazole-2,5-diyldi-4,1-phenylene)bis(4-tert-butoxy-1-(2,2-dimethylpropanoyl)-2-pyrrolidinecarboxamide)]	6.00 to 7.00
O=C(Nc1ccc(-c2cnc(-c3ccc(NC(=O)[C@@H]4CCCN4C(=O)c4ccc[nH]4)cc3)o2)cc1)[C@@H]1CCCN1C(=O)c1ccc[nH]1 [XY-33, (2S,2′S)-N,N′-(1,3-oxazole-2,5-diyldi-4,1-phenylene)bis(1-(1H-pyrrol-2-ylcarbonyl)-2-pyrrolidinecarboxamide)]	5.00 to 6.00
Cn1cncc1C(O)C(=O)N1CCC[C@H]1C(=O)Nc1ccc(-c2cnc(-c3ccc(NC(=O)[C@@H]4CCCN4C(=O)C(O)c4cncn4C)cc3)o2)cc1 (stereo partly drawn) [JR-3, (2S,2′S)-N,N′-(2,5-oxazolediyldi-4,1-phenylene)bis[1-[hydroxy(1-methyl-1H-imidazol-5-yl)acetyl]-2-pyrrolidinecarboxamide]]	6.00 to 7.00
CN(C)CC(=O)N1CCC[C@H]1C(=O)Nc1ccc(-c2cnc(-c3ccc(NC(=O)[C@@H]4CCCN4C(=O)CN(C)C)cc3)o2)cc1 [XY-5, (2S,2′S)-N,N′-(1,3-oxazole-2,5-diyldi-4,1-phenylene)bis(1-((dimethylamino)acetyl)-2-pyrrolidinecarboxamide)]	5.00 to 6.00
O=C(Nc1ccc(-c2cnc(-c3ccc(NC(=O)[C@@H]4CCCN4C(=O)c4cccnc4)cc3)o2)cc1)[C@@H]1CCCN1C(=O)c1cccnc1 [XY-4, (2S,2′S)-N,N′-(1,3-oxazole-2,5-diyldi-4,1-phenylene)bis(1-(3-pyridinylcarbonyl)-2-pyrrolidinecarboxamide)]	6.00 to 7.00

Same assay, conditions: Hepatitis C virus, HCV 1b genotype replicon; read-out: EC50 1b

Compound	pEC50
C[C@H](NC(=O)OCc1ccccc1)C(=O)Nc1ccc(-c2n[nH]nc2-c2ccc(NC(=O)[C@H](C)NC(=O)OCc3ccccc3)cc2)cc1 [OL-18, [(1S)-1-methyl-2-oxo-2-[[4-[4-[4-[[(2S)-1-oxo-2-[[(phenylmethoxy)carbonyl]amino]propyl]amino]phenyl]-1H-1,2,3-triazol-5-yl]phenyl]amino]ethyl]-carbamic acid, phenylmethyl ester]	7.04
C[C@](O)(C(=O)N1CCC[C@H]1C(=O)Nc1ccc(-c2nnc(-c3ccc(NC(=O)[C@@H]4CCCN4C(=O)[C@](C)(O)c4ccccc4)cc3)o2)cc1)c1ccccc1 [RK-28, (2S,2′S)-N,N′-(1,3,4-oxadiazole-2,5-diyldi-4,1-phenylene)bis(1-((2R)-2-hydroxy-2-phenylpropanoyl)-2-pyrrolidinecarboxamide)]	8.52
